Patent publication US20230200388A1, “COMPOUNDS AND METHODS FOR STIMULATING PLANTS” (Sound Agriculture Company, priority 2020, published 2023)

Key:
Format in all cases: cell-based
[1] = test system: nifHpro::luciferase Azotobacter vinelandii reporter line; assay: Nitrogenase (nifH) activity with nifHpro::luciferase Azotobacter vinelandii reporter line; conditions: 10 μM to 0.001 μM in DMSO, 21 hours, over controls, n=9 experiments, FIG. 6
Experimental: Gibson Assembly was used to clone the luciferase gene (ordered from IDT) into pE_Gm and LR into pVSP61 (plasmids provided by Doug Dahlbeck at Staskawicz Lab, UC Berkeley). Standard triparental mating was used with pRK600 (provided by Doug Dahlbeck at Staskawicz Lab, UC Berkeley) to obtain the final reporter strain of Azotobacter vinelandii transformed with reporter plasmid.
nifHpro::luciferase Azotobacter vinelandii were grown for 24 hours in 50 mL liquid Burks —N media (HiMedia Laboratories) with 1 ng/μL Kanamycin, shaking at 100 RPM under lights at ˜30° C. After 24 hours, supernatant was spun down 12000 G for two minutes to collect cells. After supernatant was removed, cells were washed with cleared Burks —N liquid media supernatant, resuspended, and centrifuged again at 12000 G. This process was repeated, for a total of two washes.
Resuspended cells were combined with Burks —N media with 1 ng/μL Kanamycin, to obtain a fresh culture at OD 0.1. 50 mL shake flasks were then inoculated with 5 mL of this culture, plus appropriate chemistry, in the scheme that follows. A stock solution of Quercetin was made in DMSO. […]
After 21 hours, 50 mL flasks were removed from the shaker. […] Plates were inserted into plate reader and luminescence of each well was analyzed.

[2] = test system: soil's native microbial community; assay: Phosphate solubilization in soil consortia (soil as inoculum in NBRIP media); conditions: relative to soil not contacted with QC
Source text: To determine if a test compound, QC, alters phosphate solubilization in a soil's native microbial community, dried and sieved soil was used as a bacterial inoculum in NBRIP media with and without QC.

[3] = test system: nifHpro::luciferase Azotobacter vinelandii reporter strain; assay: nifHpro::luciferase bioreporter assay for nitrogen fixation; conditions: 1 μM, 24 h, relative to control bacteria not contacted
Experimental: Three hundred base pairs upstream of the ATG of the nifHDK of Azotobacter vinelandii (nifHipro) was cloned in frame, upstream of luciferase in pVSP61 (kanR). Azotobacter vinelandii (Lipman ATCC® BAA-1303) was transformed with the reporter plasmid with triparental mating, Transformants were selected for on nitrogen-free kanamycin plates and confirmed with PCR and sequencing.
Five milliliters of nifHpro::luciferase Bioreporter strain #171 was grown overnight in autoclaved, nitrogen-free medium (Burks, HiMedia M707) at starting OD600=0.02 with 1 ug/mL Kanamycin in sterile 50 mL flasks. Chemical treatments were dissolved in 100% EtOH and added at appropriate concentrations, keeping the volume constant. The solvent was no more than 2% of the final culture volume, and solvent only controls were included in each experiment.
After 24 h, the growth density each culture was read in a clear, flat-bottomed microplate by adding 180 μl to each well (flasks were measured in triplicate) and measuring absorbance at 600 nm in a microplate reader. […]
The luminescence of each well was read on an iD3 plate reader (Molecular Devices). Luminescence of each well (reported as RLU, Relative Light Unit) was divided by its OD600 in order to adjust for culture density.

Compound	activation of nifHpro::luciferase bioreporter (nitrogenase gene expression) [1]	amount of detectable orthophosphate in the growth media of soil-inoculated cultures [2]	luminescence (nitrogen fixation) [3]
O=c1c(O)c(-c2ccc(O)c(O)c2)oc2cc(O)cc(O)c12 [Formula Id]	activated	–	–
O=c1c(O)c(-c2ccc(O)c(O)c2)oc2cc(O)cc(O)c12 [QC, quercetin]	–	increased	significant increase
